Blank lines part the entries; values can stand above or below the molecule they belong to. Starred links: 1 amine or outer side, 2 acyl side, 3 side chain; linkers in the order of their positions; H or OH if unused. Positions of bridges follow the written chain, without caps; N, C: chain ends. Non-standard residues stand in square brackets, D forms with d. Residues, ends and D or L forms follow the SMILES beside them. Chains are numbered I, II in the order given. Hexamethylenediamine = C(CCCN[*:2])CCN[*:1]; Dip = N[C@H](C(=O)O)C(c1ccccc1)c1ccccc1; Chg = N[C@H](C(=O)O)C1CCCCC1; NMeA = CN[C@@H](C)C(=O)O
Legend:
cells = assay: Cell death assay (Annexin V / propidium iodide); type: cell-based
Experimental: Cell death assay. Cells (2×10^5 cells/well) were seeded in a 6-well plate and treated with the indicated drugs for 6 hours. Cells were dissociated using Accutase (Thermo Fisher; Cat. #00-4555-56) in order to avoid accidental exposure of phosphatidylserine on the outer plasma membrane. Cell death was evaluated with Dead Cell Apoptosis Kit with Annexin V Alexa Fluor™ 488 & Propidium Iodide (Thermo Fisher; Cat. #V13241) according to manufacturer's protocol. Data was acquired by BD LSRII flow cytometer system using BD FACSDiva software. Data was analyzed by FlowJo (BD).

[1] = target: T1, HR2 domain of MFN2 (residues 678-757) (Homo sapiens, UniProt O95140); assay: Microscale thermophoresis (MST) binding; details: His-tagged MFN2-HR2, 30° C.
T1 sequence (O95140 678-757): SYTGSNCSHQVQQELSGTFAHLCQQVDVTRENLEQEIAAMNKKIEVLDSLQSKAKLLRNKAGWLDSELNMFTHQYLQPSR
Experimental: Microscale Thermopheresis. Freshly purified His-tagged MFN2-HR2 domain was used for Microscale Thermophoresis (MST) binding studies. For protein labelling, a fresh stock of 5 μM His-tag-RED-tris-NTA 2nd generation dye (Nanotemper) in 25 mM Hepes pH 7.5, 100 mM NaCl, 0.005% Tween-20 (assay buffer) was used to label 500 nM of MFN2-HR2 in the same buffer. The labeling reaction was incubated for 30 min at RT and centrifuged at 15.000×g at 4° C. for 10 min. Labelled protein from the supernatant was kept on ice and used immediately. Compounds were serially diluted in 100% DMSO. Immediately before mixing with labeled protein, the dilution series was transferred in assay buffer to reach 2% DMSO. 10 μl of each compound in the final series was mixed with 10 μl of labeled protein and samples were incubated for 5 min at 30° C. before MST measurement using a MonolithNT.115 instrument (Nanotemper). Peptides were diluted in assay buffer plus 2% DMSO and treated as above. […] Kd values were obtained from non-linear regression fits of normalized data to a three or four parameter logistic curve, using GraphPad Prism 9.

MEFs [2] = assay: Mitochondrial aspect ratio (Mito AR), live cell imaging; details: for activity to promote mitochondrial fusion or fision: MASMs: fusion, MFIs: fission; for capacity to promote mitochondrial fragmentation in cells (activity of MFI8 analogue): compared with MFI8; for mitochondrial aspect ratio: MEFs, MitoTracker Green
Experimental: Live cell imaging. MEFs were seeded on chamber slides (MatTek Corporation: 35 mm dishes, No. 1.5, 14 mm glass diameter) at ˜70% confluence. […] Images were taken with Leica SP5 inverted confocal microscope. Data were analyzed with Image J software. >200 mitochondria were measured per condition in mitochondrial aspect ratio.
Measurement of mitochondrial aspect ratio (Mito AR). Images that depict stained mitochondria with mitotracker green were analyzed using FIJI We measured for each mitochondrion its length and width. Then, we divided the length by the width for each mitochondrion to get its mitochondrial aspect ratio. >200 mitochondria were measured per treatment.

MEFs [3] = assay: Caspase-3/7 activation assay; type: cell-based, mouse; details: 6 hr, Caspase-Glo 3/7
Experimental: Caspase-3/7 activation assay. Cells (5×10^3 cells/well) were seeded in a 96-well white plate and treated with MASM7, MFI8. Caspase 3/7 activation was measured after 6 hr by addition of the Caspase-Glo 3/7 reagent according to the manufacturer's protocol (Promega). Luminescence was detected by a F200 PRO microplate reader (TECAN). Caspase assays were performed in at least triplicate and the data normalized to vehicle-treated control wells. Dilutions of MASM7 or MFI8 were performed using a TECAN D300e Digital Dispenser from 10 mM stocks.

[4] = target: the molecule itself; assay: blue native PAGE of digitonin lysates of isolated MEF mitochondria, anti-MFN2 blot

Molecule: CN[C@@H](C)C(=O)N[C@H](C(=O)N1CCC[C@H]1C(=O)N[C@H](C(=O)NCCCCCCNC(=O)[C@@H](NC(=O)[C@@H]1CCCN1C(=O)[C@@H](NC(=O)[C@H](C)NC)C1CCCCC1)C(c1ccccc1)c1ccccc1)C(c1ccccc1)c1ccccc1)C1CCCCC1 [BV6, reference compound] (I: H-[NMeA][Chg]P[Dip] / II: H-[NMeA][Chg]P[Dip]; linker I:C-II:C via Hexamethylenediamine)
- cell death upon BV6 treatment (cells; deletion of MFNs): sensitized cells to BV6 treatment

Molecule: Cc1cccc(NCc2cc(Cl)ccc2O)c1 [MFI24, 4-Chloro-2-((m-tolylamino)methyl)phenol]
- mitochondrial aspect ratio (MEFs [2]): did not reduce mitochondrial aspect ratio

B1: MFN2 (endogenous, in mitochondria isolated from MEFs) (other, mouse (MEFs), UniProt Q80U63 1-757, looked up)
chain: MSLLFSRCNSIVTVKKDKRHMAEVNASPLKHFVTAKKKINGIFEQLGAYIQESASFLEDTHRNTELDPVTTEEQVLDVKGYLSKVRGISEVLARRHMKVAFFGRTSNGKSTVINAMLWDKVLPSGIGHTTNCFLRVGGTDGHEAFLLTEGSEEKKSVKTVNQLAHALHQDEQLHAGSMVSVMWPNSKCPLLKDDLVLMDSPGIDVTTELDSWIDKFCLDADVFVLVANSESTLMQTEKQFFHKVSERLSRPNIFILNNRWDASASEPEYMEEVRRQHMERCTSFLVDELGVVDRAQAGDRIFFVSAKEVLSARVQKAQGMPEGGGALAEGFQVRMFEFQNFERQFEECISQSAVKTKFEQHTVRAKQIAEAVRLIMDSLHIAAQEQRVYCLEMREERQDRLRFIDKQLELLAQDYKLRIKQITEEVERQVSTAMAEEIRRLSVLVDEYQMDFHPSPVVLKVYKNELHRHIEEGLGRNLSDRCSTAIASSLQTMQQDMIDGLKPLLPVSMRNQIDMLVPRQCFSLSYDLNCDKLCADFQEDIEFHFSLGWTMLVNRFLGPKNSRRALLGYSDQVQRPLPLTPANPSMPPLPQSSLTQEELMVSMVTGLASLTSRTSMGILVVGGVVWKAVGWRLIALSFGLYGLLYVYERLTWTTKAKERAFKRQFVEYASEKLQLIISYTGSNCSHQVQQELSGTFAHLCQQVDITRDNLEQEIAAMNKKVEALDSLQSRAKLLRNKAGWLDSELNMFTHQYLQPSR
notes: whole, on cells; The protein stood in isolated mitochondria, not on whole cells; It was solubilised with digitonin and resolved by blue native PAGE; also called mitofusin-2
- binding result [4]: binds

The next lines start with results.

- direct binding to the HR2 domain of MFN2 (MST) [1]: did not demonstrate measurable binding
- caspase-3/7 activity (MEFs [3]): did not increase caspase-3/7 activity
Molecule: Cc1cccc(NC(C)c2ccccc2O)c1C (centres unmarked) [MFI22, 2-(1-((2,3-Dimethylphenyl)amino)ethyl)phenol]
- activity to promote mitochondrial fusion or fision (MEFs [2]): inability or weak activity
- capacity to promote mitochondrial fragmentation in cells (activity of MFI8 analogue) (MEFs [2]): significantly reduced the capacity of the compound to promote mitochondrial fragmentation
- sensitization to BV6-induced cell death (cells; in combination with BV6): did not sensitize cells to BV6 treatment

- direct binding to the HR2 domain of MFN2 (MST) [1]: did not demonstrate measurable binding
Molecule: Cc1cccc(NC(C)c2cccc(Cl)c2)c1C (centres unmarked) [MFI26, N-(1-(3-chlorophenyl)ethyl)-2,3-dimethylaniline]
- activity to promote mitochondrial fusion or fision (MEFs [2]): inability or weak activity
- capacity to promote mitochondrial fragmentation in cells (activity of MFI8 analogue) (MEFs [2]): detrimental for the activity

- direct binding to the HR2 domain of MFN2 (MST) [1]: demonstrated direct binding
Molecule: Cc1cccc(NCc2cc(Cl)ccc2O)c1C [MFI23, 4-Chloro-2-(((2,3-dimethylphenyl)amino)methyl)phenol]
- mitochondrial aspect ratio (MEFs [2]): decreasing
- capacity to promote mitochondrial fragmentation in cells (activity of MFI8 analogue) (MEFs [2]): minimal effect on the activity

Reference: patent US20240366540A1, “MITOFUSIN INHIBITORS AND USES THEREOF” (Albert Einstein College of Medicine, priority 2021, published 2024)
